According to US20040067483A1, “Compositions, methods and kits for identying protein-protein interaction disrupting agents” (priority 2003, published 2004):

Target: T1, interaction between TGFR (RI) and FKPB12 (Homo sapiens, UniProt P62942)
T1 construct: expressed in transfected cells; host or cells: 293A cells
Assay: Mammalian reverse two-hybrid system, GFP reporter, stable cell line (pCMV-tetOP-AD-RI-IRES-BD-FKBP12)
Assay type: cell-based
Details: 293A cells; 1 μg/ml Dox, 48 hrs; FK506 100 nM, AG1478 2.5 μM; FIG. 2
Experimental: Green Fluorescence Protein (GFP). To directly assay the expression of GFP, cells were cultured in 96 or 384 well low fluorescence assay plates with 100 or 50 μl of DMEM medium. Dox and agents were added at concentrations described below. Following 48-hrs of treatment, the medium in each well was replaced with PBS. The intensity of GFP was directly measured at 485 mn excitation and 525 nm emission with a fluorescence multi-well plate reader (CytoFluor II, PerSeptive Biosystems or Wallac Victor V Stacker, Perkin Elmer).
The mammalian reverse two-hybrid system of the present invention was tested with this protein-protein interaction pair to evaluate if the effect of FK506 on disrupting the interaction can be detected. To achieve this, the cytoplasmic domain of the TGFR (RI) was fused with the transcriptional activation domain (AD) of VP16 and FKBP12 was fused with the Gal4 DNA binding domain (BD).
A stable cell line harboring the construct TetR-KRAB, GFP reporter construct, and the construct pCMV-tetOP-AD-RI-IRES-BD-FKBP12 was selected to evaluate the effect of drug molecule FK506 on the interaction between TGFR (RI) and FKPB12. The intensity of GFP expression was monitored following 48 hrs of treatment of the cells with the inducer Dox and the agent FK506.
Expression of the GFP reporter gene was evaluated following the treatment. […]

T1 sequence (P62942 whole entry): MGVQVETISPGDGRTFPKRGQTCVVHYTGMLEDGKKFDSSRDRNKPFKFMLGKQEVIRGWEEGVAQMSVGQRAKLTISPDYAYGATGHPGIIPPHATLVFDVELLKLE

COc1cc2ncnc(Nc3cccc(Cl)c3)c2cc1OC [AG1478]
Dox induced GFP expression (GFP reporter gene): no effect
